Source: ChEMBL document CHEMBL3039007, “Structure-based identification of OATP1B1/3 inhibitors” (Mol Pharmacol, 2013)

What was measured:
[1] = molecular target: T1, Solute carrier organic anion transporter family member 1B1 (Homo sapiens, UniProt Q9Y6L6); details: chinese hamster, cho, 10 µM
T1 sequence (Q9Y6L6 whole entry): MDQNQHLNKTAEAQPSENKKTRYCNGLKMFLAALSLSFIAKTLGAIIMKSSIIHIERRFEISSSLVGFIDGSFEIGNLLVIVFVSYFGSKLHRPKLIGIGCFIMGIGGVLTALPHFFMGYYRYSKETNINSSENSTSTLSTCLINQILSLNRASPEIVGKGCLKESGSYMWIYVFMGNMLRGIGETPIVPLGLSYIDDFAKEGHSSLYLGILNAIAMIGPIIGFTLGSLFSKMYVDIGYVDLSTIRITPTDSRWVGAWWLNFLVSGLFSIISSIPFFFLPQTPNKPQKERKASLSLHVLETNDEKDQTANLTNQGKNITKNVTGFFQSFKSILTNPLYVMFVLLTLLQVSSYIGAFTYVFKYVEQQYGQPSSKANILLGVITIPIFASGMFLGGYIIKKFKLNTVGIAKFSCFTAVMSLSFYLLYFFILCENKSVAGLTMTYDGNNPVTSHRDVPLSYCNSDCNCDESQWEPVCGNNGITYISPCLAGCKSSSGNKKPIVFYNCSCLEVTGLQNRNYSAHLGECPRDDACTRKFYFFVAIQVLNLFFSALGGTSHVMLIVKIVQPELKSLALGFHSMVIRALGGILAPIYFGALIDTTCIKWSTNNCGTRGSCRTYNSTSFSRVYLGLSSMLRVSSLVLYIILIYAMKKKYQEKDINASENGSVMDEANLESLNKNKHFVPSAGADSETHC

[2] = molecular target: T2, Solute carrier organic anion transporter family member 1B3 (Homo sapiens, UniProt Q9NPD5); details: chinese hamster, cho, 10 µM
T2 sequence (Q9NPD5 whole entry): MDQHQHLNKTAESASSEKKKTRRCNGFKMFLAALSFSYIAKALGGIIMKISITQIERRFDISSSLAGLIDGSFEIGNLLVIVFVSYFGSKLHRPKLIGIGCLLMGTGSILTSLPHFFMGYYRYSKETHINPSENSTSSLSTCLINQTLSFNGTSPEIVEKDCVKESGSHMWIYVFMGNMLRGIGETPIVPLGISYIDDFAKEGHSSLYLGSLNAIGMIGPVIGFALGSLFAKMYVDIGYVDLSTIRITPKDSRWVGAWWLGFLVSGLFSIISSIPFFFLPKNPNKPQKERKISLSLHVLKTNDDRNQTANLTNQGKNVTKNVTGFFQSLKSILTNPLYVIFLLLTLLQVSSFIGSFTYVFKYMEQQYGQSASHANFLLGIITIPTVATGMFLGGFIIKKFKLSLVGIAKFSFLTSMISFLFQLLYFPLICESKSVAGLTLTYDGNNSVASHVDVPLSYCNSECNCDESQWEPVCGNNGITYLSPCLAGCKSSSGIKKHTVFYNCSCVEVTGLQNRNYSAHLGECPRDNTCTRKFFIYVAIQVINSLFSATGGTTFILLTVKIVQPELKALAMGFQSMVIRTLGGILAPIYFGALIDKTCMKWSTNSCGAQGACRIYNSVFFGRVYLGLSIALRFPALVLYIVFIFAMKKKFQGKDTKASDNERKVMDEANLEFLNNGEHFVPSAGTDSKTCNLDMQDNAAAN

| SMILES | residual activity [1] | residual activity [2] |
| --- | --- | --- |
| COc1cc2ccc(=O)oc2c(O)c1O [FRAXETIN] | 68.87% | 106.2% |
| COc1cc2ccc(=O)oc2c(OC)c1OC [FRAXIDIN METHYL ETHER] | 92.39% | 92.79% |
| C[C@H]1C(=O)CC[C@@H]2[C@]1(C)CC[C@H]1[C@@]2(C)CC[C@@]2(C)[C@@H]3CC(C)(C)CC[C@]3(C)CC[C@]12C [FRIEDELINE] | 112% | 90.31% |
| O=C1OCCN1/N=C/c1ccc([N+](=O)[O-])o1 [FURAZOLIDONE] | 91.17% | 94.52% |
| NS(=O)(=O)c1cc(C(=O)O)c(NCc2ccco2)cc1Cl [FUROSEMIDE] | 86.58% | 90.27% |
| CC(=O)O[C@H]1C[C@@]2(C)[C@@H](C[C@@H](O)[C@H]3[C@@]4(C)CC[C@@H](O)[C@@H](C)[C@@H]4CC[C@@]32C)/C1=C(\CCC=C(C)C)C(=O)O [FUSIDIC ACID] | 39.52% | 58.34% |
| CC[N+](CC)(CC)CCOc1cccc(OCC[N+](CC)(CC)CC)c1OCC[N+](CC)(CC)CC.[I-].[I-].[I-] [GALLAMINE TRIETHIODIDE] | 91.38% | 79.25% |
| O=C(O)c1cc(O)c(O)c(O)c1 [GALLIC ACID] | 67.94% | 91.35% |
| CC(C)=CCC[C@]1(C)C=Cc2c(O)c3c(c(CC=C(C)C)c2O1)O[C@]12C(=C[C@@H]4C[C@H]1C(C)(C)O[C@@]2(C/C=C(/C)C(=O)O)C4=O)C3=O [GAMBOGIC ACID] | 75.57% | 65.8% |
| NCC(O)CC(=O)O (stereo not drawn) [GAMMA-AMINO-BETA-HYDROXYBUTYRIC ACID] | 120.5% | 106.5% |
| NCCCC(=O)O [GAMMA-AMINOBUTYRIC ACID] | 56.63% | 81.28% |
| COC(=O)c1c(OC)cc2c(c1C)Oc1c(Cl)c(OC(C)=O)c(Cl)c(C)c1C(=O)O2 [GANGLEOIDIN ACETATE] | 34.6% | 54.62% |
| COc1c(N2CCNC(C)C2)c(F)cc2c(=O)c(C(=O)O)cn(C3CC3)c12 (stereo not given) [GATIFLOXACIN] | 121.9% | 96.61% |
| CC(=O)O[C@@H]1C[C@H]2C(C)(C)C(=O)C=C[C@]2(C)[C@H]2CC[C@@]3(C)[C@H](c4ccoc4)OC(=O)[C@H]4O[C@]43[C@@]21C [GEDUNIN] | 65.45% | 105.4% |
| CO/N=C1\CN(c2nc3c(cc2F)c(=O)c(C(=O)O)cn3C2CC2)CC1CN.CS(=O)(=O)O (stereo not given) [GEMIFLOXACIN MESYLATE] | 102.7% | 108.8% |
| CN[C@@H]1[C@@H](O)[C@@H](O[C@@H]2[C@@H](O)[C@H](O[C@H]3O[C@H]([C@@H](C)O)[C@@H](O)[C@H](O)[C@H]3N)[C@@H](N)C[C@H]2N)OC[C@]1(C)O [GENETICIN] | 83.57% | 105.6% |
| COc1cc(O)c2c(=O)cc(-c3ccc(O)cc3)oc2c1 [GENKWANIN] | 116.7% | 107% |
| CN(C)c1ccc(C(=C2C=CC(=[N+](C)C)C=C2)c2ccc(N(C)C)cc2)cc1.[Cl-] [GENTIAN VIOLET] | 109.6% | 92.5% |
| O=C(O)c1cc(O)ccc1O [GENTISIC ACID] | 84.57% | 104% |
| CCCCCC/C=C\CCCCCCCc1cccc(O)c1C(=O)O [GINGKOLIC ACID] | 135.9% | 93.22% |
| COc1cc(O)c2c(=O)cc(-c3ccc(OC)c(-c4c(O)cc(O)c5c(=O)cc(-c6ccc([O-])cc6)oc45)c3)oc2c1.[K+] [GINKGETIN, K salt] | 46.45% | 46.72% |
| C[C@@H]1C(=O)O[C@H]2C[C@@]34[C@H]5C[C@@H](C(C)(C)C)[C@]36[C@@H](OC(=O)[C@@H]6O)O[C@@]4(C(=O)O5)[C@]21O [GINKGOLIDE A] | 103.7% | 113.8% |
| CC(=O)O[C@H]1CC[C@@]2(C)[C@H](CC[C@@H]3[C@@H]2CC[C@]2(C)[C@@H](C4=CC(=O)OC4)[C@@H](OC(C)=O)C[C@]32O)C1 [GITOXIGENIN DIACETATE] | 111.6% | 118.5% |

| SMILES | residual activity [1] | residual activity [2] |
| --- | --- | --- |
| C[C@H]1O[C@@H](O[C@H]2[C@@H](O)C[C@H](O[C@H]3[C@@H](O)C[C@H](O[C@H]4CC[C@@]5(C)[C@H](CC[C@@H]6[C@@H]5CC[C@]5(C)[C@@H](C7=CC(=O)OC7)[C@@H](O)C[C@]65O)C4)O[C@@H]3C)O[C@@H]2C)C[C@H](O)[C@@H]1O [GITOXIN] | 103.4% | 102.2% |
| O=C(OCC(O)CO)c1ccccc1Nc1ccnc2cc(Cl)ccc12 (stereo not given) [GLAFENINE] | 188.5% | 130.7% |
| Cc1ccc(S(=O)(=O)NC(=O)NN2CC3CCCC3C2)cc1 (stereo not given) [GLICLAZIDE] | 106.3% | 113.3% |
| OC[C@@H](O)[C@@H](O[C@@H]1O[C@H](CO)[C@@H](O)[C@H](O)[C@H]1O)[C@H](O)[C@@H](O)CO [GLUCITOL-4-GUCOPYANOSIDE] | 90.99% | 90.65% |
| O=C1O[C@H](CO)[C@@H](O)[C@H](O)[C@H]1O [GLUCONOLACTONE] | 81.83% | 89.12% |
| Cl.N[C@H]1C(O)O[C@H](CO)[C@@H](O)[C@@H]1O (stereo not given in full) [GLUCOSAMINE HYDROCHLORIDE] | 60.72% | 87.62% |
| N[C@@H](CCC(=O)N[C@@H](CS)C(=O)NCC(=O)O)C(=O)O [GLUTATHIONE] | 67.16% | 87.82% |
| CC(=O)O[C@@H]1[C@H]2CC[C@H]3[C@@](C)(O)[C@@H]4C[C@H](O)C(C)(C)[C@@]4(O)[C@H](O)C[C@@]13C[C@@]2(C)O [GRAYANOTOXIN I] | 79.68% | 95.98% |
| COC1=CC(=O)C[C@@H](C)[C@]12Oc1c(Cl)c(OC)cc(OC)c1C2=O [GRISEOFULVIN] | 65.59% | 97.62% |
| Cc1ccc(C(C)C)cc2c(C)ccc1-2 [GUAIAZULEN] | 49.11% | 50.28% |
| CC(=O)O.N=C(N)N/N=C/c1c(Cl)cccc1Cl [GUANABENZ ACETATE] | 90.81% | 87.6% |
| N=C(N)N [GUANIDINE] | 106.5% | 100% |
| COP(=S)(OC)SCn1nnc2ccccc2c1=O [GUTHION] | 109.1% | 101.8% |
| Cl.O=C(O)C1=CCCNC1 [GUVACINE HYDROCHLORIDE] | 115% | 108.7% |
| Cc1cc(O)c(C=O)c(O)c1C(=O)O [HAEMATOMMIC ACID] | 54.98% | 81.5% |
| COc1cc2c(cc1OC)C(=O)c1ccc(OC)c(OC)c1OCC(=O)C2 [HAEMATOXYLONE, TETRAMETHYL-] | 141.3% | 90.54% |
| O=C(O)c1ccc(S(=O)(=O)N(Cl)Cl)cc1 [HALAZONE] | 97.95% | 84.35% |
| CC1(C)O[C@@H]2C[C@H]3[C@@H]4CCC5=CC(=O)CC[C@]5(C)[C@@]4(F)[C@@H](O)C[C@]3(C)[C@]2(C(=O)CCl)O1 [HALCINONIDE] | 88.26% | 103.5% |
| O=C(CCCN1CCC(O)(c2ccc(Cl)cc2)CC1)c1ccc(F)cc1 [HALOPERIDOL] | 92.15% | 111.7% |
| COc1ccc2c3c([nH]c2c1)C(C)=NCC3 [HARMALINE] | 92.56% | 115.9% |
| CC1=NCCc2c1[nH]c1cc(O)ccc21.Cl [HARMALOL HYDROCHLORIDE] | 84.87% | 106.1% |
| Cc1nccc2c1[nH]c1ccccc12 [HARMAN] | 81.51% | 99.56% |
